Legend:
[1] = Blood glucose after oral BHP or BKP (Example 1); format: in vivo, human; settings: 10 g oral in water, 12 h fast
Protocol: (§1) Two (2) healthy, male subjects reported to the laboratory following a 12 hour overnight fast. Subjects were instructed to randomly consume either 10 grams of BHP or 10 grams BKP dissolved in 12 ounces of water. Subjects were then monitored for 150 minutes following drinking the mixture. Blood glucose, ketones, and visual analog scales (VAS) of well-being, energy, and focus were taken at 0, 30, 60, 90, 120, and 150 minutes. VAS scales consisted of a continuum of numbers from 1-10 with 1 being extremely low and 10 being extremely high.
(§2) Blood ketones were measured via finger prick using an Abbott Precision device which determines mMol of BHB. Blood glucose was measured using Abbott Precision glucose strips and was measured in mg/dL.

[2] = Visual analog scale of well-being after BHP or BKP (Example 1); format: in vivo, human; settings: scale 1-10, 10 g oral, 12 h fast
Protocol: as §1

[3] = Blood lactate after oral BHP, safety (Example 3); format: in vivo, human; settings: 10 g BHP oral in water
Protocol: The purpose of this experiment was to determine safety associated with ingestion of exogenous C5 ketones with regard to hyperlactemia, lactic acidosis, or ketoacidosis that sometimes happens with medications, as all 3 are associated with morbidity and mortality.
(§3) Subjects consumed 10 grams of BHP dissolved in 12 ounces of water. Subjects were then monitored for 80 minutes following drinking the mixture. Blood glucose, ketones, and lactate were taken at 0, 20, 40, 60, and 80 minutes.
(§4) Blood ketones were measured via finger prick using an Abbott Precision device which determines mMol of BHB. Blood glucose was measured using Abbott Precision glucose strips and was measured in mg/dL. Blood lactate was measured using an Abbott Precision device which determines mMol of lactate.

[4] = Visual analog scale of focus after BHP or BKP (Example 1); format: in vivo, human; settings: scale 1-10, 10 g oral, 12 h fast
Protocol: as §1

[5] = Visual analog scale of energy after BHP or BKP (Example 1); format: in vivo, human; settings: scale 1-10, 10 g oral, 12 h fast
Protocol: as §1

[6] = Blood ketones after oral BHP (Example 3); format: in vivo, human; settings: 10 g BHP oral in water
Protocol: as §3, §4

[7] = Blood glucose after oral BHP (Example 3); format: in vivo, human; settings: 10 g BHP oral in water
Protocol: as §3, §4

[8] = Blood ketones (BHB, Abbott Precision) after oral BHP or BKP (Example 1); format: in vivo, human; settings: 10 g oral in water, 12 h fast
Protocol: as §1, §2

[9] = short-term experiments; large supply of propionyl-CoA; cited from earlier work

Compound: CCC(O)CC(=O)O (stereo not drawn) [BHP, β-hydroxypentanoate]
- Blood glucose levels ([1]; Combined, 0 min.): 84 mg/dL
- Blood glucose levels ([1]; Combined, 30 min.): 80.5 mg/dL
- Blood glucose levels ([1]; Combined, 60 min.): 70.5 mg/dL
- Blood glucose levels ([1]; Combined, 90 min.): 79 mg/dL
- Blood glucose levels ([1]; Combined, 120 min.): 83.5 mg/dL
- Blood glucose levels ([1]; Combined, 150 min.): 90.5 mg/dL
- Blood glucose levels ([1]; Subject 1, 0 min.): 84 mg/dL
- Blood glucose levels ([1]; Subject 1, 30 min.): 85 mg/dL
- Blood glucose levels ([1]; Subject 1, 60 min.): 75 mg/dL
- Blood glucose levels ([1]; Subject 1, 90 min.): 79 mg/dL
- Blood glucose levels ([1]; Subject 1, 120 min.): 86 mg/dL
- Blood glucose levels ([1]; Subject 1, 150 min.): 91 mg/dL
- Blood glucose levels ([1]; Subject 2, 0 min.): 84 mg/dL
- Blood glucose levels ([1]; Subject 2, 30 min.): 76 mg/dL
- Blood glucose levels ([1]; Subject 2, 60 min.): 66 mg/dL
- Blood glucose levels ([1]; Subject 2, 90 min.): 79 mg/dL
- Blood glucose levels ([1]; Subject 2, 120 min.): 81 mg/dL
- Blood glucose levels ([1]; Subject 2, 150 min.): 90 mg/dL
- VAS of Well-Being ([2]; Combined, 0 min.): 6
- VAS of Well-Being ([2]; Combined, 30 min.): 5
- VAS of Well-Being ([2]; Combined, 60 min.): 4.5
- VAS of Well-Being ([2]; Combined, 90 min.): 6
- VAS of Well-Being ([2]; Combined, 120 min.): 4.5
- VAS of Well-Being ([2]; Combined, 150 min.): 5
- VAS of Well-Being ([2]; Subject 1, 0 min.): 7
- VAS of Well-Being ([2]; Subject 1, 30 min.): 5
- VAS of Well-Being ([2]; Subject 1, 60 min.): 5
- VAS of Well-Being ([2]; Subject 1, 90 min.): 7
- VAS of Well-Being ([2]; Subject 1, 120 min.): 5
- VAS of Well-Being ([2]; Subject 1, 150 min.): 6
- VAS of Well-Being ([2]; Subject 2, 0 min.): 5
- VAS of Well-Being ([2]; Subject 2, 30 min.): 5
- VAS of Well-Being ([2]; Subject 2, 60 min.): 4
- VAS of Well-Being ([2]; Subject 2, 90 min.): 5
- VAS of Well-Being ([2]; Subject 2, 120 min.): 4
- VAS of Well-Being ([2]; Subject 2, 150 min.): 4
- Blood Lactate ([3]; 0 min.): 1.3 mmol/L
- Blood Lactate ([3]; 20 min.): 1.4 mmol/L
- Blood Lactate ([3]; 40 min.): 0.7 mmol/L
- Blood Lactate ([3]; 60 min.): 0.9 mmol/L
- Blood Lactate ([3]; 80 min.): 1.1 mmol/L
- VAS of Focus ([4]; Combined, 0 min.): 3.5
- VAS of Focus ([4]; Combined, 30 min.): 4
- VAS of Focus ([4]; Combined, 60 min.): 3
- VAS of Focus ([4]; Combined, 90 min.): 3
- VAS of Focus ([4]; Combined, 120 min.): 5
- VAS of Focus ([4]; Combined, 150 min.): 5
- VAS of Focus ([4]; Subject 1, 0 min.): 5
- VAS of Focus ([4]; Subject 1, 30 min.): 5
- VAS of Focus ([4]; Subject 1, 60 min.): 5
- VAS of Focus ([4]; Subject 1, 90 min.): 5
- VAS of Focus ([4]; Subject 1, 120 min.): 5
- VAS of Focus ([4]; Subject 1, 150 min.): 5
- VAS of Focus ([4]; Subject 2, 0 min.): 2
- VAS of Focus ([4]; Subject 2, 30 min.): 3
- VAS of Focus ([4]; Subject 2, 60 min.): 3
- VAS of Focus ([4]; Subject 2, 90 min.): 3
- VAS of Focus ([4]; Subject 2, 120 min.): 5
- VAS of Focus ([4]; Subject 2, 150 min.): 5
- VAS of Energy ([5]; Combined, 0 min.): 4
- VAS of Energy ([5]; Combined, 30 min.): 3.5
- VAS of Energy ([5]; Combined, 60 min.): 3.5
- VAS of Energy ([5]; Combined, 90 min.): 5
- VAS of Energy ([5]; Combined, 120 min.): 4.5
- VAS of Energy ([5]; Combined, 150 min.): 6
- VAS of Energy ([5]; Subject 1, 0 min.): 5
- VAS of Energy ([5]; Subject 1, 30 min.): 4
- VAS of Energy ([5]; Subject 1, 60 min.): 5
- VAS of Energy ([5]; Subject 1, 90 min.): 7
- VAS of Energy ([5]; Subject 1, 120 min.): 5
- VAS of Energy ([5]; Subject 1, 150 min.): 7
- VAS of Energy ([5]; Subject 2, 0 min.): 3
- VAS of Energy ([5]; Subject 2, 30 min.): 3
- VAS of Energy ([5]; Subject 2, 60 min.): 2
- VAS of Energy ([5]; Subject 2, 90 min.): 3
- VAS of Energy ([5]; Subject 2, 120 min.): 4
- VAS of Energy ([5]; Subject 2, 150 min.): 5
- Blood Ketones ([6]; 0 min.): 0.3 mmol/L
- Blood Ketones ([6]; 20 min.): 0.6 mmol/L
- Blood Ketones ([6]; 40 min.): 1.8 mmol/L
- Blood Ketones ([6]; 60 min.): 1.1 mmol/L
- Blood Ketones ([6]; 80 min.): 0.5 mmol/L
- Blood Glucose ([7]; 0 min.): 99.5 mg/dL
- Blood Glucose ([7]; 20 min.): 103 mg/dL
- Blood Glucose ([7]; 40 min.): 102.5 mg/dL
- Blood Glucose ([7]; 60 min.): 94.5 mg/dL
- Blood Glucose ([7]; 80 min.): 92.5 mg/dL
- Blood ketone levels ([8]; Combined, 0 min.): 0.1 mmol
- Blood ketone levels ([8]; Combined, 30 min.): 1.6 mmol
- Blood ketone levels ([8]; Combined, 60 min.): 0.55 mmol
- Blood ketone levels ([8]; Combined, 90 min.): 0.2 mmol
- Blood ketone levels ([8]; Combined, 120 min.): 0.3 mmol
- Blood ketone levels ([8]; Combined, 150 min.): 0.2 mmol
- Blood ketone levels ([8]; Subject 1, 0 min.): 0.1 mmol
- Blood ketone levels ([8]; Subject 1, 30 min.): 1.8 mmol
- Blood ketone levels ([8]; Subject 1, 60 min.): 0.7 mmol
- Blood ketone levels ([8]; Subject 1, 90 min.): 0.2 mmol
- Blood ketone levels ([8]; Subject 1, 120 min.): 0.2 mmol
- Blood ketone levels ([8]; Subject 1, 150 min.): 0.2 mmol
- Blood ketone levels ([8]; Subject 2, 0 min.): 0.1 mmol
- Blood ketone levels ([8]; Subject 2, 30 min.): 1.4 mmol
- Blood ketone levels ([8]; Subject 2, 60 min.): 0.4 mmol
- Blood ketone levels ([8]; Subject 2, 90 min.): 0.2 mmol
- Blood ketone levels ([8]; Subject 2, 120 min.): 0.4 mmol
- Blood ketone levels ([8]; Subject 2, 150 min.): 0.2 mmol
- Metabolism and tolerance in animals [9]: well metabolized in animals without apparent intolerance

Source: US20240074996A1, “C5 KETONE COMPOSITIONS AND RELATED METHODS FOR TREATING METABOLIC DYSFUNCTION” (Keto Innovations, LLC, priority 2018, published 2024)
